Assay results reported in ChEMBL document CHEMBL1129930, “Analogues of methotrexate in rheumatoid arthritis. 2. Effects of 5-deazaaminopterin, 5,10-dideazaaminopterin, and analogues on type II collagen-induced arthritis in mice” (J Med Chem, 1997).

Assays:
[1] = system: Mus musculus; assay: Tested for antiinflammatory activity on mouse type II collagen arthritis as Paw swelling of all animals in each group on day 37 at intraperitoneal dose of 6 mg/kg; type: functional
[2] = system: Mus musculus; assay: Tested for antiinflammatory activity on mouse type II collagen arthritis as Paw swelling of all animals in each group on day 37 at intraperitoneal dose of 3 mg/kg; type: functional
[3] = system: Mus musculus; assay: Incidence of disease (mouse type II collagen) was scored as the percentage of animals within each experimental group that exhibited joint or limb inflammation on day 44 at intraperitoneal dose of 3 mg/kg; type: functional
[4] = system: Mus musculus; assay: Incidence of disease (mouse type II collagen) was scored as the percentage of animals within each experimental group that exhibited joint or limb inflammation on day 44 at intraperitoneal dose of 6 mg/kg; type: functional
[5] = system: Mus musculus; assay: Tested for antiinflammatory activity on mouse type II collagen arthritis as Paw swelling of all animals in each group on day 44 at intraperitoneal dose of 1.5 mg/kg; type: functional
[6] = system: Mus musculus; assay: Tested for antiinflammatory activity on mouse type II collagen arthritis as Paw swelling of all animals in each group on day 30 at intraperitoneal dose of 6 mg/kg; type: functional
[7] = system: Mus musculus; assay: Tested for antiinflammatory activity on mouse type II collagen arthritis as Paw swelling of all animals in each group on day 37 at intraperitoneal dose of 1.5 mg/kg; type: functional
[8] = system: Mus musculus; assay: Tested for antiinflammatory activity on mouse type II collagen arthritis as Paw swelling of all animals in each group on day 23 at intraperitoneal dose of 6 mg/kg; type: functional
[9] = system: Mus musculus; assay: Incidence of disease (mouse type II collagen) was scored as the percentage of animals within each experimental group that exhibited joint or limb inflammation on day 37 at intraperitoneal dose of 6 mg/kg; type: functional
[10] = system: Mus musculus; assay: Incidence of disease (mouse type II collagen) was scored as the percentage of animals within each experimental group that exhibited joint or limb inflammation on day 23 at intraperitoneal dose of 1.5 mg/kg; type: functional
[11] = system: Mus musculus; assay: Incidence of disease (mouse type II collagen) was scored as the percentage of animals within each experimental group that exhibited joint or limb inflammation on day 37 at intraperitoneal dose of 3 mg/kg; type: functional
[12] = system: Mus musculus; assay: Incidence of disease (mouse type II collagen) was scored as the percentage of animals within each experimental group that exhibited joint or limb inflammation on day 44 at intraperitoneal dose of 1.5 mg/kg; type: functional
[13] = system: Mus musculus; assay: Tested for antiinflammatory activity on mouse type II collagen arthritis as Paw swelling of all animals in each group on day 44 at intraperitoneal dose of 6 mg/kg; type: functional
[14] = system: Mus musculus; assay: Tested for antiinflammatory activity on mouse type II collagen arthritis as Paw swelling of all animals in each group on day 30 at intraperitoneal dose of 1.5 mg/kg; type: functional
[15] = system: Mus musculus; assay: Incidence of disease (mouse type II collagen) was scored as the percentage of animals within each experimental group that exhibited joint or limb inflammation on day 23 at intraperitoneal dose of 3 mg/kg; type: functional
[16] = system: Mus musculus; assay: Incidence of disease (mouse type II collagen) was scored as the percentage of animals within each experimental group that exhibited joint or limb inflammation on day 30 at intraperitoneal dose of 3 mg/kg; type: functional
[17] = system: Mus musculus; assay: Incidence of disease (mouse type II collagen) was scored as the percentage of animals within each experimental group that exhibited joint or limb inflammation on day 23 at intraperitoneal dose of 6 mg/kg; type: functional
[18] = system: Mus musculus; assay: Tested for antiinflammatory activity on mouse type II collagen arthritis as Paw swelling of all animals in each group on day 44 at intraperitoneal dose of 3 mg/kg; type: functional
[19] = system: Mus musculus; assay: Tested for antiinflammatory activity on mouse type II collagen arthritis as Paw swelling of all animals in each group on day 23 at intraperitoneal dose of 3 mg/kg; type: functional
[20] = system: Mus musculus; assay: Incidence of disease (mouse type II collagen) was scored as the percentage of animals within each experimental group that exhibited joint or limb inflammation on day 37 at intraperitoneal dose of 1.5 mg/kg; type: functional
[21] = system: Mus musculus; assay: Tested for antiinflammatory activity on mouse type II collagen arthritis as Paw swelling of all animals in each group on day 23 at intraperitoneal dose of 1.5 mg/kg; type: functional
[22] = system: Mus musculus; assay: Tested for antiinflammatory activity on mouse type II collagen arthritis as Paw swelling of all animals in each group on day 30 at intraperitoneal dose of 3 mg/kg; type: functional
[23] = system: Mus musculus; assay: Incidence of disease (mouse type II collagen) was scored as the percentage of animals within each experimental group that exhibited joint or limb inflammation on day 30 at intraperitoneal dose of 6 mg/kg; type: functional
[24] = system: Mus musculus; assay: Incidence of disease (mouse type II collagen) was scored as the percentage of animals within each experimental group that exhibited joint or limb inflammation on day 30 at intraperitoneal dose of 1.5 mg/kg; type: functional
[25] = Concentration required to inhibit the growth of chang liver cells.; type: functional; conditions: Homo sapiens
[26] = system: L1210; assay: Concentration required to inhibit the growth of L1210 cells.; type: functional, cell-based; conditions: Mus musculus

Row | Structure (SMILES) | Paw swelling [1] [mm] | Paw swelling [2] [mm] | Animals [3] [%] | Animals [4] [%] | Paw swelling [5] [mm] | Paw swelling [6] [mm] | Paw swelling [7] [mm] | Paw swelling [8] [mm] | Animals [9] [%] | Animals [10] [%] | Animals [11] [%] | Animals [12] [%] | Animals [15] [%] | Animals [16] [%] | Animals [17] [%] | Paw swelling [18] [mm] | Paw swelling [19] [mm] | Animals [20] [%] | Paw swelling [22] [mm] | Animals [24] [%] | other results
1 | CCc1c(CN(C)c2ccc(C(=O)NC(CCC(=O)O)C(=O)O)s2)cnc2nc(N)nc(N)c12 (stereo not drawn) | 2.16 | 2.2 | 88 | 50 | 2.37 | 2.13 | 2.26 | 2.12 | 12 | 25 | 12 | 50 | 0 | 0 | 0 | 2.45 | 2.14 | 38 | 2.15 | 12 | Paw swelling [13]: 2.32 mm; Paw swelling [14]: 2.2 mm; Paw swelling [21]: 2.24 mm; Animals [23]: 0%
2 | Cc1c(CN(C)c2ccc(C(=O)NC(CCC(=O)O)C(=O)O)s2)cnc2nc(N)nc(N)c12 (stereo not drawn) | 2.19 | 2.14 | 57 | 38 | 2.33 | 2.13 | 2.21 | 2.11 | 12 | 0 | 0 | 50 | 0 | 0 | 0 | 2.32 | 2.13 | 12 | 2.16 | 0 | Paw swelling [21]: 2.12 mm; Animals [23]: 0%
3 | C=CCN(Cc1cnc2nc(N)nc(N)c2c1CC)c1ccc(C(=O)NC(CCC(=O)O)C(=O)O)cc1 (stereo not drawn) | 2.28 | 2.34 | 86 | 88 | 2.4 | 2.21 | 2.26 | 2.15 | 50 | 0 | 57 | 62 | 0 | 29 | 0 | 2.55 | 2.16 | 38 | 2.27 | 0 | Paw swelling [13]: 2.45 mm; Paw swelling [14]: 2.18 mm; Paw swelling [21]: 2.14 mm; Animals [23]: 25%
4 | Cc1c(CN(C)c2ccc(C(=O)NC(CCC(=O)O)C(=O)O)cc2)cnc2nc(N)nc(N)c12 (stereo not drawn) | – | 2.47 | 100 | – | 2.44 | – | 2.42 | – | – | 0 | 50 | 62 | 0 | 50 | – | 2.48 | 2.1 | 50 | 2.26 | 12 | IC50 [25]: 78 nM; IC50 [26]: 1.3 nM; Paw swelling [14]: 2.26 mm
5 | Cc1c(CNc2ccc(C(=O)NC(CCC(=O)O)C(=O)O)cc2)cnc2nc(N)nc(N)c12 (stereo not drawn) | 2.34 | 2.42 | 60 | 100 | 2.55 | 2.16 | 2.31 | 2.12 | 100 | 0 | 40 | 75 | 12 | 0 | 0 | 2.53 | 2.21 | 25 | 2.18 | 0 | IC50 [25]: 123 nM; IC50 [26]: 1.8 nM; Paw swelling [13]: 2.59 mm; Paw swelling [21]: 2.13 mm; Animals [23]: 0%
6 | CCCN(Cc1cnc2nc(N)nc(N)c2c1C)c1ccc(C(=O)NC(CCC(=O)O)C(=O)O)cc1 (stereo not drawn) | 2.2 | 2.17 | 0 | 25 | 2.22 | 2.19 | 2.21 | 2.16 | 12 | 0 | 0 | 25 | 0 | 0 | 0 | 2.16 | 2.12 | 12 | 2.13 | 0 | IC50 [25]: 14 nM; IC50 [26]: 11 nM; Paw swelling [13]: 2.24 mm; Paw swelling [14]: 2.15 mm; Paw swelling [21]: 2.15 mm; Animals [23]: 12%
7 | CCC(Cc1cnc2nc(N)nc(N)c2c1)c1ccc(C(=O)NC(CCC(=O)O)C(=O)O)cc1 (stereo not drawn) | 2.8 | 2.67 | 100 | 100 | 2.59 | 2.57 | 2.48 | 2.2 | 88 | 25 | 100 | 88 | 25 | 88 | 12 | 2.7 | 2.26 | 88 | 2.43 | 62 | IC50 [25]: 12 nM; IC50 [26]: 75 nM; Paw swelling [13]: 2.76 mm; Paw swelling [14]: 2.31 mm; Paw swelling [21]: 2.17 mm; Animals [23]: 100%
8 | CCCCc1c(CNc2ccc(C(=O)NC(CCC(=O)O)C(=O)O)cc2)cnc2nc(N)nc(N)c12 (stereo not drawn) | 2.27 | 2.2 | 38 | 50 | 2.27 | 2.15 | 2.23 | 2.12 | 50 | 0 | 12 | 38 | 0 | 0 | 0 | 2.27 | 2.16 | 38 | 2.15 | 0 | Paw swelling [13]: 2.29 mm; Paw swelling [14]: 2.17 mm; Paw swelling [21]: 2.16 mm; Animals [23]: 0%
9 | C#CCN(Cc1cnc2nc(N)nc(N)c2c1C)c1ccc(C(=O)NC(CCC(=O)O)C(=O)O)cc1 (stereo not drawn) | 2.32 | – | 62 | 62 | 2.37 | 2.21 | 2.33 | 2.23 | 62 | 0 | 50 | 62 | 0 | 25 | 12 | 2.38 | 2.12 | 50 | 2.27 | 25 | IC50 [25]: 593 nM; IC50 [26]: 1.6 nM; Paw swelling [13]: 2.46 mm; Paw swelling [14]: 2.31 mm; Paw swelling [21]: 2.16 mm; Animals [23]: 25%
